# Laboratory results reported in the NIST ThermoML archive (doi:10.1016/j.jct.2007.11.006).
# Numbers after ± are expanded uncertainties.
# Tests used:
# [1] = Molar enthalpy of transition or fusion; conditions: Crystal; DSC
# [2] = molar enthalpy of vaporization or sublimation; conditions: 298.15 K; Crystal; Drop sublimation at initial T = 411 K and adjusted to 298.15 K
# [3] = Crystal
smiles,measurement,setting,value
"COc1cc(O)cc(OC)c1OC [3,4,5-trimethoxyphenol]",Molar enthalpy of transition or fusion,[1],7.63 ± 0.645 kcal/mol
same,molar enthalpy,[2],29.9 ± 1.48 kcal/mol
same,mass density,"[3]; 298.1 K, 101.33 kPa, mass of pellet and dimensions",1080 ± 10 kg/m3
same,Normal melting temperature,[3]; DTA,147.02 ± 0.43 °C
